pKi: −log10 of the molar value.
Columns and labels:
Carbonic anhydrase 2 = Carbonic anhydrase 2 (Homo sapiens, UniProt P00918); experiment: Inhibition of human carbonic anhydrase-2
Carbonic anhydrase 12 = Carbonic anhydrase 12 (Homo sapiens, UniProt O43570); experiment: Inhibition of human carbonic anhydrase-12
Carbonic anhydrase 1 = Carbonic anhydrase 1 (Homo sapiens, UniProt P00915); experiment: Inhibition of human carbonic anhydrase-1
Carbonic anhydrase 1, sequence (P00915 whole entry): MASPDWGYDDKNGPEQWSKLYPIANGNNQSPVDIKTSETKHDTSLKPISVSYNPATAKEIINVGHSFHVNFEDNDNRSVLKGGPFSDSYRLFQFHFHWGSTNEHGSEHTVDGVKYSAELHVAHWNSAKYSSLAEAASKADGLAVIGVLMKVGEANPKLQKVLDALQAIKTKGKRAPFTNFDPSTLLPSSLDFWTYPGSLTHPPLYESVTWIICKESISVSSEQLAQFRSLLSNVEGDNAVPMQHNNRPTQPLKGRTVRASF

Carbonic anhydrase 12, sequence (O43570 whole entry): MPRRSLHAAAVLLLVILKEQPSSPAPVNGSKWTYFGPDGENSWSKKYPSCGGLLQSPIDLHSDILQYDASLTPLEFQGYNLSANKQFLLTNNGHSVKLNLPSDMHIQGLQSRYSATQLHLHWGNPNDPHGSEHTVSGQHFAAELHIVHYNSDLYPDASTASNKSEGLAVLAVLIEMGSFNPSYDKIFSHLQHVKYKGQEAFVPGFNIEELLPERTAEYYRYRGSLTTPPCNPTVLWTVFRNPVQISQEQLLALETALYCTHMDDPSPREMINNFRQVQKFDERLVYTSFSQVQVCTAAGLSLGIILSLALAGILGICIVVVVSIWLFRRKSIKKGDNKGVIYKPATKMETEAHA

pKi (Carbonic anhydrase 2)	pKi (Carbonic anhydrase 12)	pKi (Carbonic anhydrase 1)	Compound
6.37	7.37		NS(=O)(=O)Oc1ccc(NC(=O)NC23CC4CC(CC(C4)C2)C3)cc1
	7.77	5.37	Cc1cc(Cl)ccc1NC(=O)Nc1ccc(NS(N)(=O)=O)cc1
6.47	6.97	5.37	NS(=O)(=O)Nc1ccc(NC(=O)NC2CCCCC2)cc1
6.37			COc1ccc(OC)c(NC(=O)Nc2ccc(NS(N)(=O)=O)cc2)c1
6.37	7.57		CC(NC(=O)Nc1ccc(NS(N)(=O)=O)cc1)c1cccc2ccccc12 (stereo not given)
	7.96	5.18	NS(=O)(=O)Nc1ccc(NC(=O)NCc2ccco2)cc1
6.17			CC(C)c1ccccc1NC(=O)Nc1ccc(NS(N)(=O)=O)cc1
6.37	7.57		COc1ccc(C)cc1NC(=O)Nc1ccc(NS(N)(=O)=O)cc1
6.07	6.67		NS(=O)(=O)Nc1ccc(NC(=O)Nc2ccccc2-c2ccccc2)cc1
6.47	7.47	5.47	COc1ccc(NC(=O)Nc2ccc(NS(N)(=O)=O)cc2)c(C)c1
6.17			Cc1cc(C)cc(NC(=O)Nc2ccc(NS(N)(=O)=O)cc2)c1
6.77	8.05	5.57	NS(=O)(=O)Nc1ccc(NC(=O)NCCc2ccccc2)cc1
6.47	7.57	5.47	NS(=O)(=O)Nc1ccc(NC(=O)Nc2ccc(Cl)cc2)cc1
6.37	8.05	5.67	NS(=O)(=O)Nc1ccc(NC(=O)Nc2cccc([N+](=O)[O-])c2)cc1
6.47		5.77	CCCCOc1ccc(NC(=O)Nc2ccc(NS(N)(=O)=O)cc2)cc1
6.87	8.05	5.57	NS(=O)(=O)Nc1ccc(NC(=O)NCc2ccccc2)cc1
